ChEMBL document CHEMBL4152208, “Synthesis and structure-activity relationships of quinolinone and quinoline-based P2X7 receptor antagonists and their anti-sphere formation activities in glioblastoma cells” (Eur J Med Chem, 2018)
Active and inactive are the calls of the source. No cut-off for these calls is given here.

Tests used:
[1] = molecular target: P2X purinoceptor 1 (Rattus norvegicus, UniProt P47824); experiment: Antagonist activity at wild type His6 tagged rat P2X1 receptor expressed in Xenopus laevis oocytes assessed as inhibition of alphabeta-me ATP-induced calcium flux at -60 mV holding potential by two electrode voltage clamp method; format: cell-based
[2] = molecular target: T1, P2X purinoceptor 1 (Rattus norvegicus, UniProt P47824); experiment: Antagonist activity at P2X1 receptor in rat vas deferens assessed as inhibition of alphabeta me-ATP-induced response
T1 sequence (P47824 whole entry): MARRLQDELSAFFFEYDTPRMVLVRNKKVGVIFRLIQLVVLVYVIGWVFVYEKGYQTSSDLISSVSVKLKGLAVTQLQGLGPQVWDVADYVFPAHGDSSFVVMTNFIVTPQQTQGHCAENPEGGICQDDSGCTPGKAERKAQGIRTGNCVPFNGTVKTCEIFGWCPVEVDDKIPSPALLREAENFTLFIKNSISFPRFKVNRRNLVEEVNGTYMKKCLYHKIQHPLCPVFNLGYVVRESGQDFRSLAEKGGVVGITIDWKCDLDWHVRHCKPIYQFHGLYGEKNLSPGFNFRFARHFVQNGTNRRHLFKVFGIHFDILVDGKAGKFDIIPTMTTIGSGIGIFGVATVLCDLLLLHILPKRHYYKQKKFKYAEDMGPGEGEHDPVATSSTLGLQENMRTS

[3] = molecular target: T2, P2X purinoceptor 3 (Rattus norvegicus, UniProt P49654); experiment: Antagonist activity at P2X3 receptor in rat DRG neurons at -70 mV holding potential by whole cell patch clamp method
T2 sequence (P49654 whole entry): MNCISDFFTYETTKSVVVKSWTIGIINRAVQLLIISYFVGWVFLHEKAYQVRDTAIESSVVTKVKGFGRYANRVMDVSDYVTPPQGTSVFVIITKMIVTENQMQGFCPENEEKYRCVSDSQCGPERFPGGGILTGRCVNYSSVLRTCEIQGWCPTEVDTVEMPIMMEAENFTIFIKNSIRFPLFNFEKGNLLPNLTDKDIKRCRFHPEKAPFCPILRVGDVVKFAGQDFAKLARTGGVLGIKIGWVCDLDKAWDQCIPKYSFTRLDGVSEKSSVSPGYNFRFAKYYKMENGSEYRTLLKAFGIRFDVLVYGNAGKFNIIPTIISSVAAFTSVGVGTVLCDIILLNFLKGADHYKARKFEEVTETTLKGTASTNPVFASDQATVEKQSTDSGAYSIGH

[4] = Cytotoxicity against HEK293 cells expressing human P2X7 receptor assessed as cell survival at 10 uM by MTT assay relative to control; format: cell-based; details: read-out: Survival
[5] = Kinetic solubility of the compound in PAMPA buffer at 12.5 uM by nepheolometry method; format: physicochemical
[6] = Kinetic solubility of the compound in PAMPA buffer at 50 uM by nepheolometry method; format: physicochemical
[7] = species: Homo sapiens; experiment: Inhibition of neurosphere formation in human TS15-88 cells assessed as decrease in sphere size at 50 uM after 5 days by microscopic analysis relative to control; format: functional
[8] = Effective permeability of the compound at 50 uM after 4 hrs by BBB-PAMPA method; format: ADME; details: read-out: Peff
[9] = Metabolic stability in rat liver microsomes assessed as parent compound remaining at 1 uM up to 30 mins in presence of NADPH by LC-MS/MS analysis; format: ADME, microsome; details: read-out: Stability
[10] = Metabolic stability in human liver microsomes assessed as parent compound remaining at 1 uM up to 30 mins in presence of NADPH by LC-MS/MS analysis; format: ADME, microsome; details: read-out: Stability
[11] = molecular target: T3, P2X purinoceptor 7 (Homo sapiens) (UniProt Q99572); experiment: Antagonist activity at human P2X7 receptor expressed in HEK293 cells assessed as inhibition of BzATP-induced EtBr uptake at 10 uM after 2 hrs by fluorescence assay relative to control; format: cell-based
T3 sequence (whole entry): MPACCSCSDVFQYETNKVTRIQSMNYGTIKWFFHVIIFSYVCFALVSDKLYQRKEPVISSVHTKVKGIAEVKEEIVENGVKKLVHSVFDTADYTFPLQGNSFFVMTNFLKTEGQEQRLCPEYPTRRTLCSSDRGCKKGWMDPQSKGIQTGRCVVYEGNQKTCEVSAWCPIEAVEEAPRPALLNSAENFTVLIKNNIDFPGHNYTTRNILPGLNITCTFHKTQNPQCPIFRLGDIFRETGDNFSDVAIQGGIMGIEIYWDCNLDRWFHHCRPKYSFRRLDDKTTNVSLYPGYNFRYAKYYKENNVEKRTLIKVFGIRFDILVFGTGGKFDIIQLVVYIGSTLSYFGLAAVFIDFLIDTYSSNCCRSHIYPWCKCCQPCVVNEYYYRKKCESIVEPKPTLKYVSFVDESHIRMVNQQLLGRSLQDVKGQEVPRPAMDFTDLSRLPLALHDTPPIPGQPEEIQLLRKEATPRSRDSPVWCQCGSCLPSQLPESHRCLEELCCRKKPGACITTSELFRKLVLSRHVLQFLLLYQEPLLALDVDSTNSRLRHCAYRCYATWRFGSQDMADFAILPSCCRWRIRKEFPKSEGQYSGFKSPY

[12] = molecular target: T4, P2X purinoceptor 7 (Homo sapiens, UniProt Q99572); experiment: Antagonist activity at human P2X7 receptor expressed in HEK293 cells assessed as inhibition of BzATP-induced EtBr uptake after 2 hrs by fluorescence assay relative to control; format: cell-based
T4 sequence (Q99572 whole entry): T3 sequence (whole entry)

[13] = Kinetic solubility of the compound in PAMPA buffer at 25 uM by nepheolometry method; format: physicochemical
[14] = molecular target: T3, P2X purinoceptor 7 (Homo sapiens); experiment: Antagonist activity at human P2X7 receptor expressed in HEK293 cells assessed as inhibition of BzATP-induced EtBr uptake at 1 uM after 2 hrs by fluorescence assay relative to control; format: cell-based
[15] = molecular target: T4, P2X purinoceptor 7; experiment: Antagonist activity at P2X7 in LPS/IFN gamma differentiated human THP-1 cells assessed as inhibition of BzATP-induced IL-1beta release preincubated for 30 mins followed by BzATP stimulation for 30 mins by ELISA; format: cell-based
[16] = species: Homo sapiens; experiment: Antiproliferative activity against human TS15-88 cells at 50 uM after 24 hrs by MTS assay; format: functional, cell-based
[17] = Metabolic stability in mouse liver microsomes assessed as parent compound remaining at 1 uM up to 30 mins in presence of NADPH by LC-MS/MS analysis; format: ADME, microsome; details: read-out: Stability

Nc1c(S(=O)(=O)O)cc(Nc2ccc(S(=O)(=O)O)c(Nc3nc(Cl)nc(Cl)n3)c2)c2c1C(=O)c1ccccc1C2=O
IC50 [1]: 570 nM
IC50 [2]: 4700 nM

O=C(Nc1cc(C(=O)Nc2ccc(S(=O)(=O)O)cc2)cc(C(=O)Nc2ccc(S(=O)(=O)O)cc2)c1)Nc1cc(C(=O)Nc2ccc(S(=O)(=O)O)cc2)cc(C(=O)Nc2ccc(S(=O)(=O)O)cc2)c1
IC50 [3]: 500 nM

O=C(CC12CC3CC(CC(C3)C1)C2)Nc1cccc2nc(-c3ccc(C(=O)O)cc3)ccc12
viability at 10 µM [4]: 94%
Kinetic_solubility [5]: Soluble
Kinetic_solubility [6]: Soluble
inhibition [7]: inactive
Papp at 4 h, 50 µM [8]: 8.44 to 8.46 ×10⁻⁶ cm/s
remaining at 0.5 h, 1 µM [9]: 10.9%
remaining at 0.5 h, 1 µM [10]: 40.5%
inhibition [11]: 93%
IC50 [12]: 8 nM
Kinetic_solubility [13]: Soluble
inhibition [14]: 87%
IC50 [15]: 25 nM
Activity [16]: inactive
remaining at 0.5 h, 1 µM [17]: 8.1%
